Measurements published in US5686424A, “2-oxoethyl derivatives as immunosuppressants” (Miles Inc., priority 1995, dated 1997).
Read-outs that look alike come from different tables or passages of the source.

What was measured:
NF-AT = NF-AT Inhibition Assay Directed β-Galactosidase Expression in FGL-5 cells; assay type: cell-based
Protocol: 3) NF-AT Assay Stimulation of T-cells leads to the appearance of several transcription factors, including one designated "NF-AT". These factors are involved in regulation of gene expression required for immunologic activation. Some of these transcription factors appear to have functions in a wide variety of cell types. By contrast, NF-AT is found primarily in T-cells and its role is restricted to early gene activation. […] Inhibition of NF-AT activity is measured using FGL-5 cells. FGL-5 is a cloned line of stably transfected Jurkat T-cells that contain two construct in which three tandem copies of the NF-AT DNA binding site direct transcription of both murine CD8 and the lacZ gene, encoding β-galactosidase ([…] et al., 1990, Genes & Development 4:1823). When these cells are stimulated with phorbol esters which activate protein kinase C and calcium ionophore to raise the intracellular calcium concentration, transcriptionally active NF-AT is produced. In T-cells, this normally leads to the expression of IL-2, T-cell growth factor. However, in FGL-5 cells NF-AT activation leads to the production of β-galactosidase which can be detected using an appropriate substrate. […] NF-AT Inhibition Assay Directed β-Galactosidase Expression This assay was performed essentially as described (Bierer et al., 1990, Proc. Natl. Acad. Sci. 87:9231). […] The assays were done with exponentially growing cells whose density was not greater than 0.5 million cells/ml. The cells were resuspended to 3 million cells/ml in medium and 0.1 ml was added to wells of a 96-well plate. The compounds of the present invention were dissolved in either ethanol or dimethylsulfoxide at 10 mM and […] of various dilutions in medium were added to cells in duplicate wells. Treatment controls consisted of duplicate wells containing 0.5 ml/well of either medium, ethanol or dimethylsulfoxide. The ethanol and dimethyl sulfoxide were at the same concentration as was used for the compounds. […] Phorbol dibutyrate (Sigma) and Ionomycin (Calbiochem) were dissolved at 50 μg/ml and 2 mM, respectively and stored at -70° C. […] For unstimulated cell controls, 0.5 ml/well of medium was added to duplicate wells. The plates were incubated overnight (16-18 hours) at 37° C. in a humidified atmosphere of 5% CO2 and air. β-galactosidase activity was measured as the fluorescence generated by the cleavage of 4-methyl umbelliferyl-β-D-galactoside (Sigma) at the β-galactoside bond. After overnight incubation, the cells were centrifuged at 500×g for 3 minutes in the 96-well plates and washed 3 times with PBS. […] The percent inhibition by each concentration of the compounds was calculated as: […]

human T-cells = assay: Suppression of Human T-Cell Proliferation Assay (PHA-stimulated, [3H]-thymidine incorporation); assay type: cell-based; conditions: read-out: IC50
Source text: 2) Human T Lymphocyte Inhibition
Inhibition of mitogen-induced T-cell proliferation can be used to profile immunosuppressive activity of test compounds. In the description of the assay which follows, mitogen-induced T-cell activation was used to test the inhibitory potencies of select compounds of the present invention.
In an assay similar to that described by Bradley in Mishell et al. (Eds.), 1980, Selected Methods in Cellular Immunology, pp 156-161, W. H. Freeman & Co., San Fransisco, Calif., T-cells were stimulated by incubation with phytohemagglutinin (PHA) which binds to cell surface molecules, including the T-cell receptor. This stimulation results in proliferation which can be measured by incorporation of [^3 H]-thymidine into cellular DNA.
The immunosuppressive properties of the compounds of the present invention can be determined by adding various concentrations of the compounds to these cultures and measuring the effect on T-cell proliferation.
Suppression of Human T-Cell Proliferation Assay
Fresh LeukoPaks were obtained from the New York Blood Center, New York, N.Y. The cells, including erythrocytes and leukocytes, were diluted with Hank's Balanced Salt Solution (HBSS) (GIBCO, Grand Island, N.Y.) and layered over Lymphoprep (Nycomed Pharma AS, Oslo, Norway) in sterile 50 ml conical centrifuge tubes. Lymphocytes were isolated at the Hank's/Nycomed interface after centrifugation at 2000×g, 4° C. for 15 min. The lymphocytes were washed with Minimal Essential Medium (GIBCO) containing 2% fetal bovine serum (FBS) (Sigma Chemical Co., St. Louis, Mo.), 1% HEPES buffer (GIBCO) and 1% Penicillin-Stretomycin solution (GIBCO).
T-cells were further purified essentially by sheep erythrocyte (SRBC) rosetting as described by Morimoto et al., 1983, J. Immunol. 130:157. The isolated lymphocytes were adjusted to 2×10^7 cells/ml and 5 ml aliquots of the cell suspension were incubated for 10 minutes at room temperature with 5 ml of a 5% SRBC (Cappel, Organon Technika Corp., West Chester, Pa.) suspension. The cells were gently pelleted by centrifugation at 300 rpm for 10 minutes, followed by a 1 hour incubation at room temperature to allow rosette formation. The cells were gently resuspended,layered over Lymphoprep and centrifuged for 30 minutes at 500×g. The pellet, containing rosetted T-cells and SRBC was treated with ice cold buffered ammonium chloride (GIBCO) to lyse the erythrocytes. T-cells were washed twice with HBSS.
Purified T-cells were resuspended at 2×10^6 cells/ml in complete culture medium composed of RPMI-1640 (Whittaker Bioproducts, Walkerville, Md.) with 10% FBS (Sigma), 2 mM L-glutamine (GIBCO), 1% Penicillin-Streptomycin (GIBCO) and 15 mM HEPES (GIBCO). In 96-well plates (Becton Dickinson, Lincoln Park, N.J.), 0.1 ml aliquots of T-cell suspension were mixed with 0.05 ml of 40 μg/ml PHA-M (Sigma). The compounds of this invention were dissolved in dimethylsulfoxide at 10 mM and various dilutions in complete medium were added in duplicate wells (0.05 ml/well). The plates were incubated at 37° C. in a humidified atmosphere of 5% carbon dioxide and 95% air for 72 hours.
Proliferation was assessed by measurement of [^3 H]-thymidine incorporation. During the last 6 hours of incubation, the cells were pulse labelled with 1 μCi/well of [^3 H]-thymidine (New England Nuclear, Boston, Mass.). The cells were harvested onto glass fiber paper using a plate harvester and the radioactivity incorporated into cellular DNA corresponding to individual wells was measured by standard liquid scintillation counting methods.

FKBP = FKBP (Homo sapiens, UniProt P62942); assay: PPIase Inhibition Assay; assay type: biochemical
Protocol: 1) Inhibition of PPIase Activity
This assay follows in principle the procedure described in Kofron et al., 1991, Biochemistry 30:6127.
The three main reagents used are PPIase, a substrate for PPIase, and a selected inhibitor compound of the present invention. The basic principle behind this assay is the conversion of the cis isomer of the substrate to the trans form, which conversion is catalyzed by PPIase. Essentially, inhibition of this PPIase activity is measured for the selected compounds. A peptide chymotrypsin substrate containing a proline in the P2 position is only cleaved by chymotrypsin when the Phe-Pro bond is in the trans isomeric configuration. In the presence of excess chymotrypsin, all of the trans peptide isomers are cleaved within approximately five seconds, leaving only cis forms.
The cis peptide will spontaneously convert to the trans isomer at a slow rate. The cis to trans conversion is catalyzed by isomerases at a much faster rate than this spontaneous conversion. Proteins with PPIase activity are examples of such isomerases. After isomerization, the peptide is cleaved by chymotrypsin releasing p-nitroaniline which can be monitored at 390 nm. The rate of release is then calculated using a first order rate plus offset equation utilizing the ENZFITTER program (Leatherbarrow, BIOSOFT, Cambridge, United Kingdom).
In a plastic cuvette are added 950 ul of ice cold assay buffer (25 mM HEPES, pH 7.8, 100 mM NaCl), 10 uL of FKBP (2.5 uM in 10 mM Tris-Cl pH 7.5, 100 mM NaCl, 1 mM dithiothreitol), 25 ul of chymotrypsin (50 mg/ml in 1 mM HCl) and 10 ul of the test compound at various concentrations in dimethyl sulphoxide. The reaction is initiated by addition of 5 ul of substrate (Succinyl-Ala-Phe-Pro-Phe-para-nitroanilide, 5 mg/ml in 235 mM LiCl in trifluoroethanol).
The absorbance at 390 nm versus time is monitored for 90 sec using a Beckman DU70 spectrophotometer. The absorbance versus time data files are transferred to an IBM XT computer and the rate constants determined using the commercial enzfitter program. For each set of data, the uncatalyzed rate of conversion is measured and the uninhibited enzymatic rate determined. The data are expressed as % Activity remaining and are calculated as follows:
% Activity Remaining=(kobs -kuncat)/(kuninh
where kobs is the rate in the presence of a selected test compound, kuncat is the rate in the absence of enzyme, and kuninh is the rate in the presence of enzyme
Data was plotted as the velocity in the absence of the inhibitor (V-) divided by the velocity in the presence of inhibitor (V+) versus the inhibitor concentration. The IC50 can be determined following linear regression as the inhibitor concentration where

[1] = 50% inhibition of NF-AT directed β-galactosidase activity in FGL-5 cells stimulated with phorbol dibutyrate and ionomycin, TABLE 3
[2] = concentration inhibiting [3H]-thymidine incorporation of PHA-stimulated T-cells by 50%, 72 hours, TABLE 2
[3] = concentration of inhibitor required for 50% inhibition of enzyme activity, FKBP, substrate Succinyl-Ala-Phe-Pro-Phe-para-nitroanilide, TABLE I

FKBP, sequence (P62942 whole entry): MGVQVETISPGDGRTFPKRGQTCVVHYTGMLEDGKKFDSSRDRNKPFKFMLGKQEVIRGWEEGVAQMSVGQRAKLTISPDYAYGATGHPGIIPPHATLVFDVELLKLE

Compound: CC[C@H](C)[C@H](NC(=O)[C@@H]1CCCN1CC(=O)C1CCC2CCCC21)C(=O)NCc1ccccc1 (relative stereo) [Example 40]
- IC50 (NF-AT): 19 µM
- IC50 (human T-cells): 17 µM
- IC50 (FKBP): < 5 µM

Compound: CC[C@H](C)[C@H](NC(=O)[C@@H]1CCCCN1CC(=O)C12CC3CC(CC(C3)C1)C2)C(=O)NCc1ccccc1 [Example 36, L-Isoleucine, N-[1-(2-Adamantan-1-yl-2-Oxoethyl)-L-Homoproline] Benzylamide]
- IC50 (NF-AT; [1]): 13 µM
- IC50 (human T-cells; [2]): 20 µM
- IC50 (FKBP; [3]): 2.2 µM

Compound: CC[C@H](C)[C@H](NC(=O)[C@@H]1CCCN1CC(=O)c1ccco1)C(=O)NCc1ccccc1 [Example 37, L-Isoleucine, N-[1-(2-Furan-2-yl-2-Oxoethyl)-L-Prolyl] Benzylamide]
- IC50 (NF-AT): > 100 µM
- IC50 (human T-cells): > 100 µM
- IC50 (FKBP): > 50 µM

Compound: CCCCCC1CCC(C(=O)CN2CCC[C@H]2C(=O)N[C@H](C(=O)NCc2ccccc2)[C@@H](C)CC)CC1 (stereo partly drawn) [Example 42, L-Isoleuclne, N-[1-(2-(4-Pentylcyclohexyl)-2-Oxoethyl)-L-Prolyl] Benzylamide]
- IC50 (NF-AT; [1]): 22 µM
- IC50 (human T-cells; [2]): 7 µM
- IC50 (FKBP; [3]): > 5 µM

Compound: CC[C@H](C)[C@H](NC(=O)[C@@H]1CCCN1CC(=O)C1CCc2ccccc2C1)C(=O)NCc1ccccc1 (stereo partly drawn) [Example 43, L-Isoleuclne, N-[1-(2-(1,2,3,4-tetrahydro-Napththalen-2-yl)-2-Oxoethyl)-L-Prolyl] Benzylamide]
- IC50 (NF-AT; [1]): 14 µM
- IC50 (human T-cells; [2]): 16 µM
- IC50 (FKBP; [3]): < 5 µM

Compound: CC[C@H](C)[C@H](NC(=O)[C@@H]1CCCN1CC(=O)C12CC3CC(CC1C3)C2)C(=O)NCc1ccccc1 [Example 45, L-Isoleucine, N-[1-(2-Oxo-2-Tricyclo[3.3.1.0 ^3,7]Non-3-yl-Ethyl)-L-Prolyl] Benzylamide]
- IC50 (NF-AT; [1]): > 33 µM
- IC50 (human T-cells; [2]): 20 µM
- IC50 (FKBP; [3]): < 5 µM

Compound: CC[C@H](C)[C@H](NC(=O)[C@@H]1CCCN1CC(=O)CC12CC3CC(CC(C)(C3)C1)C2)C(=O)NCc1ccccc1 [Example 46, L-Isoleucine, N-[1-(2-Oxo-3-(3-Methyl-Adamantan-1-yl)-Propyl)-L-Prolyl] Benzylamide]
- IC50 (NF-AT; [1]): 15 µM
- IC50 (human T-cells; [2]): 13 µM
- IC50 (FKBP; [3]): < 5 µM

Compound: CC[C@H](C)[C@H](NC(=O)[C@@H]1CCCN1CC(=O)N1CCN(c2ccccc2)CC1)C(=O)NCc1ccccc1 [Example 77, L-Isoleucine, N-[1-[2-(4-Phenylpiperazine)-2-Oxoethyl]-L-Prolyl] Benzylamlde]
- IC50 (human T-cells; [2]): 28 µM
- IC50 (FKBP; [3]): < 5 µM

Compound: CC[C@H](C)[C@H](NC(=O)[C@@H]1CCCN1CC(=O)N1CCCC1)C(=O)NCc1ccccc1 [Example 78, L-Isoleucine, N-[1-[2-(1-Pyrrolidine)-2-Oxoethyl]-L-Prolyl] Benzylamide]
- IC50 (human T-cells; [2]): 100 µM
- IC50 (FKBP; [3]): > 5 µM

Compound: CC[C@H](C)[C@H](NC(=O)[C@@H]1CCCN1CC(=O)N1CCC(c2ccccc2)CC1)C(=O)NCc1ccccc1 [Example 82, L-Isoleucine, N-[1-(2-(4-Phenylpiperidyl)-2-Oxoethyl)-L-Prolyl] Benzylamide]
- IC50 (human T-cells; [2]): 20 µM
- IC50 (FKBP; [3]): < 5 µM

Compound: CC[C@H](C)[C@H](NC(=O)[C@@H]1CCCCN1CC(=O)c1cc(OC)c(OC)c(OC)c1)C(=O)NCc1ccccc1 [Example 153, L-Isoleucine, N-[1-(2-(3,4,5-Trimethoxyphenyl)-2-Oxoethyl)-L-Homoprolyl] Benzylamide]
- IC50 (NF-AT; [1]): > 15 µM
- IC50 (human T-cells; [2]): > 15 µM

Compound: L-Isoleucine, N-[1-(2-(2-Methoxyphenyl)-2-Oxoethyl)-L-Prolyl] Benzylamide [Example 10]
- IC50 (human T-cells; [2]): < 50 µM
- IC50 (FKBP; [3]): < 50 µM

Compound: L-Isoleucine, N-[1-(2-(Carbo-tert-Butoxy)-2-Oxoethyl)-L-Proline] Benzylamide [Example 25]
- IC50 (human T-cells; [2]): 63 µM
- IC50 (FKBP; [3]): 0.99 µM

Compound: L-Isoleuclne, N-[1-(2-(1-Methyl-Cyclohexyl)-2-Oxoethyl)-L-Prolyl] Benzylamide [Example 44]
- IC50 (NF-AT): 24 µM
- IC50 (human T-cells): 12 µM
